In US10227331B2 (priority 2015, dated 2019):

What was measured:
[1] = tested on: Serratia marcescens expressing IMP-1 (CL5741); type: cell-based; details: with imipenem 1 μg/ml, 95% inhibition of bacterial growth; for Serratia marcescens MITC95: IMP-1 (CL5741)
In short: (§1)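 Restoration of imipenem susceptibility (1 μg/ml imipenem) was judged by absorbance after 22–24 h at 35° C. Test compound was added to bacteria suspended 1:100 in 1.1× CAMHB from overnight blood-agar cultures.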

[2] = tested on: Escherichia coli expressing NDM-1 (CLB30005, CLB30016); type: cell-based; details: with imipenem 1 μg/ml, 95% inhibition of bacterial growth; for Escherichia coli MITC95: NDM-1 (CLB30016)
In short: as §1

[3] = tested on: Klebsiella pneumoniae expressing VIM-1 (IHMA599644); type: cell-based; details: with imipenem 1 μg/ml, 95% inhibition of bacterial growth; for Klebsiella pneumoniae MITC95: VIM-1 (IHMA599644)
In short: as §1

[4] = tested on: P. aeruginosa expressing IMP-1, efflux+ (MB9798); type: cell-based, Pseudomonas aeruginosa; details: for P. aeruginosa expressing IMP-1, efflux+ (MB9798) MITC95: imipenem at 2 μg/mL, in the presence of a class A, C, D serine β-lactamase inhibitor closely related to relebactam; for Efflux ratio: ratio MITC95 PA_9798/MITC95 PA_9799
Excerpt: (§2) The strain background is Pseudomonas aeruginosa PAO1.

VIM-1 = VIM-1 (Pseudomonas aeruginosa (strain ATCC 15692 / DSM 22644 / CIP 104116 / JCM 14847 / LMG 12228 / 1C / PRS 101 / PAO1), UniProt A0A0F7KYQ8); assay: biochemical; details: CCF2-FA substrate, 2 hours at 25° C
In short: (§3)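 Enzyme activity was measured by fluorescence using CCF2-FA, a cephalosporin-linked 7-hydroxycoumarin/fluorescein substrate, with inhibitor, metallo-β-lactamase and substrate incubated together for 2 hours at 25° C. IC50 came from a 4-parameter fit of inhibition versus log inhibitor concentration.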

IMP-1 = IMP-1 (Serratia marcescens, UniProt P52699); assay: biochemical; type: biochemical; details: CCF2-FA substrate, 2 hours at 25° C; read-out: IMP-1 IC50
In short: as §3

NDM-1 = NDM-1 (Klebsiella pneumoniae, UniProt C7C422); assay: biochemical; type: biochemical; details: CCF2-FA substrate, 2 hours at 25° C; read-out: NDM-1 IC50
In short: as §3

[5] = tested on: P. aeruginosa expressing IMP-1, efflux− (MB9799); assay: Efflux: concentration of MBL inhibitor which restores susceptibility to imipenem; type: cell-based, Pseudomonas aeruginosa; details: imipenem at 2 μg/mL, in the presence of a class A, C, D serine β-lactamase inhibitor closely related to relebactam
Excerpt: as §2

Sequence of NDM-1 (C7C422 whole entry, looked up, species assumed): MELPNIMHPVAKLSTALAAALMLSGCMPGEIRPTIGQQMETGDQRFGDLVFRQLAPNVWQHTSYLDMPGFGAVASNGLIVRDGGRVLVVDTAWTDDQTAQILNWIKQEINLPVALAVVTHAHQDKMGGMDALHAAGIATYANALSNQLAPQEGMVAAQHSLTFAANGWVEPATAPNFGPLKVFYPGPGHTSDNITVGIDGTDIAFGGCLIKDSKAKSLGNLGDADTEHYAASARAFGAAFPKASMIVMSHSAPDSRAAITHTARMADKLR
Sequence of IMP-1 (P52699 whole entry, looked up, species assumed): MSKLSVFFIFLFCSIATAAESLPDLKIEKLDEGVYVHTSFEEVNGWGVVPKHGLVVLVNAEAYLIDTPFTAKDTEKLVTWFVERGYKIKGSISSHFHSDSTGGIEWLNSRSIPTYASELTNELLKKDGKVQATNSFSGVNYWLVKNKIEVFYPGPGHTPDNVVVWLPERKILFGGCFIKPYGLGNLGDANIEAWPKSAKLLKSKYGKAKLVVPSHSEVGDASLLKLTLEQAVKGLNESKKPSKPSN

| SMILES | Serratia marcescens MITC95 [1] [µM] | Escherichia coli MITC95 [2] [µM] | Klebsiella pneumoniae MITC95 [3] [µM] | P. aeruginosa expressing IMP-1, efflux+ (MB9798) MITC95 [4] [µM] | Efflux ratio [4] | IC50 (VIM-1) [nM] | IC50 (IMP-1) [nM] | IC50 (NDM-1) [nM] | P. aeruginosa expressing IMP-1, efflux− (MB9799) MITC95 [5] [µM] | Serratia marcescens expressing IMP-1 (CL5741) MITC95 [1] [µM] | Escherichia coli expressing NDM-1 (CLB30016) MITC95 [2] [µM] | Klebsiella pneumoniae expressing VIM-1 (IHMA599644) MITC95 [3] [µM] |
| --- | --- | --- | --- | --- | --- | --- | --- | --- | --- | --- | --- | --- |
| NCCS(=O)(=O)c1ccc(-c2cccc3[nH]c(C(F)(F)F)nc23)c(-c2nn[nH]n2)c1S(N)(=O)=O [Example 308, 6-((2-aminoethyl)sulfonyl)-2-(2H-tetrazol-5-yl)-3-(2-(trifluoromethyl)-1H-benzo[d]imidazol-4-yl)benzenesulfonamide] | 3.125 | 3.125 | 3.125 | 6.25 | 4.00 | 0.219 | 0.56 | 0.17 | 1.563 |  |  |  |
| CCOC(=O)N1CC(S(=O)(=O)c2ccc(-c3cccc4[nH]c(N)nc34)c(-c3nn[nH]n3)c2S(N)(=O)=O)C1 [Example 57, ethyl 3-(4-(2-amino-1H-benzo[d]imidazol-4-yl)-2-sulfamoyl-3-(2H-tetrazol-5-yl)phenylsulfonyl)azetidine-1-carboxylate] |  |  |  | 200 | 64.00 | 0.446 | 1.98 | 0.264 | 3.125 | 6.25 | 6.25 | 12.5 |
| Nc1nc2cc(C(F)(F)F)cc(-c3ccc(S(=O)(=O)C4CNC4)c(S(N)(=O)=O)c3-c3nnn[nH]3)c2[nH]1 [Example 260, 3-(2-amino-5-(trifluoromethyl)-1H-benzo[d]imidazol-7-yl)-6-(azetidin-3-ylsulfonyl)-2-(1H-tetrazol-5-yl)benzenesulfonamide] | 6.25 | 6.25 | 12.5 | 6.25 | 1.00 | 0.813 | 1.99 | 0.598 | 6.25 |  |  |  |
| NCCS(=O)(=O)c1ccc(-c2cccc(S(=O)(=O)NC3CC3)c2)c(-c2nnn[nH]2)c1S(N)(=O)=O.O=C(O)C(F)(F)F [Example 161, 2-((3′-(N-cyclopropylsulfamoyl)-3-sulfamoyl-2-(1H-tetrazol-5-yl)-[1,1′-biphenyl]-4-yl)sulfonyl)ethanaminium 2,2,2-trifluoroacetate] |  |  |  | 50 | 31.99 | 3.04 | 1.69 | 3.47 | 1.563 | 6.25 | 6.25 | 12.5 |
| C[C@H](CN)S(=O)(=O)c1ccc(-c2cccc3sc(N)nc23)c(-c2nn[nH]n2)c1S(N)(=O)=O [Example 285, 3-(2-aminobenzo[d]thiazol-4-yl)-6-((R)-1-aminopropan-2-ylsulfonyl)-2-(2H-tetrazol-5-yl)benzenesulfonamide] | 1.563 | 3.125 | 1.563 | 3.125 | 4.00 | 0.364 | 0.534 | 0.37 | 0.7813 |  |  |  |
| NCCS(=O)(=O)c1ccc(-c2cccc3cc(N)ncc23)c(-c2nn[nH]n2)c1S(N)(=O)=O [Example 73, 6-(2-aminoethylsulfonyl)-3-(3-aminoisoquinolin-8-yl)-2-(2H-tetrazol-5-yl)benzenesulfonamide] |  |  |  | 1.563 | 1.00 | 0.241 | 0.214 | 0.109 | 1.563 | 3.125 | 0.7813 | 3.125 |
| NCCS(=O)(=O)c1ccc(-c2cccc3ccc(N)nc23)c(-c2nn[nH]n2)c1S(N)(=O)=O [Example 71, 6-(2-aminoethylsulfonyl)-3-(2-aminoquinolin-8-yl)-2-(2H-tetrazol-5-yl)benzenesulfonamide] |  |  |  | 0.7813 | 1.00 | 0.315 | 0.129 | 0.115 | 0.7813 | 0.7813 | 0.3906 | 1.563 |
| NCCS(=O)(=O)c1ccc(-c2ccccc2N)c(-c2nn[nH]n2)c1S(N)(=O)=O [Example 339, 2′-Amino-4-((2-aminoethyl)sulfonyl)-2-(2H-tetrazol-5-yl)-[1,1′-biphenyl]-3-sulfonamide] | 3.125 | 1.563 | 3.125 | 6.25 | 4.00 | 1.78 | 3.42 | 2.52 | 1.563 |  |  |  |
| Cc1ccc2cccc(-c3ccc(S(=O)(=O)C4CNC4)c(S(N)(=O)=O)c3-c3nnn[nH]3)c2n1.O=C(O)C(F)(F)F [Example 122, 3-((4-(2-methylquinolin-8-yl)-2-sulfamoyl-3-(1H-tetrazol-5-yl)phenyl)sulfonyl)azetidin-1-ium 2,2,2-trifluoroacetate] |  |  |  | 6.25 | 4.00 | 0.324 | 0.57 | 0.155 | 1.563 | 3.125 | 3.125 | 6.25 |
| Nc1nnc(-c2cccc(-c3ccc(S(=O)(=O)C4CNC4)c(S(N)(=O)=O)c3-c3nnn[nH]3)c2)o1 [Example 344, 3′-(5-Amino-1,3,4-oxadiazol-2-yl)-4-(azetidin-3-ylsulfonyl)-2-(1H-tetrazol-5-yl)-[1,1′-biphenyl]-3-sulfonamide] | 3.125 | 3.125 | 6.25 | 25 | 15.99 | 0.268 | 1.7 | 0.47 | 1.563 |  |  |  |
| NS(=O)(=O)c1c(S(=O)(=O)C2CNC2)ccc(-c2ccnc3[nH]nnc23)c1-c1nn[nH]n1 [Example 200, 3-(3H-[1,2,3]triazolo[4,5-b]pyridin-7-yl)-6-(azetidin-3-ylsulfonyl)-2-(2H-tetrazol-5-yl)benzenesulfonamide] |  |  |  | 100 | 4.00 | 21.6 | 13.7 | 5.65 | 25 | 25 | 25 | 100 |
